Data as given in patent US10442791B2, “DNA-PK inhibitors” (Vertex Pharmaceuticals Incorporated, priority 2012, dated 2019).

Experiments:
Type in all cases: cell-based
glioblastoma cell lines = test: Cell viability following irradiation, glioblastoma cell lines; details: generally less sensitive to radiation alone
Experimental: (§1) To evaluate the radiosensitizing effects of compounds of the invention in combination with ionizing radiation (IR), a broad panel of cell lines across multiple tumor types and genetic backgrounds were tested. Cells were incubated with DMSO or compound 578 for 30 minutes and then exposed to various doses of radiation (0, 0.5, 1, 2, 4, 6, 8, and 16 Gy). Cell viability was assessed at 6 days using CellTiter-Glo® (Promega, Inc).

OE19 = test: Cell viability following irradiation (CellTiter-Glo), OE19; details: OE19 (Gastric-Esophageal Cancer), viability at 6 days
Experimental: as §1

HCT116 = test: Cell viability following irradiation (CellTiter-Glo), HCT116; details: HCT116 (Colorectal Cancer), viability at 6 days
Experimental: as §1

Miapaca2 = test: Cell viability following irradiation (CellTiter-Glo), Miapaca2; details: Miapaca2 (Pancreatic cancer), viability at 6 days
Experimental: as §1

DBTRG-05MG = test: Cell viability following irradiation (CellTiter-Glo), DBTRG-05MG; details: DBTRG-05MG (Glioblastoma), viability at 6 days
Experimental: as §1

SNU449 = test: Cell viability following irradiation (CellTiter-Glo), SNU449; details: SNU449 (Hepatocellular Carcinoma), viability at 6 days
Experimental: as §1

SW900 = test: Cell viability following irradiation (CellTiter-Glo), SW900; details: SW900 (Lung Cancer), viability at 6 days
Experimental: as §1

`CNC(=O)c1ccnc2c([C@H](C)CNc3cc(-c4cnc(C)nc4)ncn3)cccc12` [Compound 578, (S)—N-methyl-8-(1-((2′-methyl-[4,5′-bipyrimidin]-6-yl)amino)propan-2-yl)quinoline-4-carboxamide] was tested, and the radiosensitization (glioblastoma cell lines) was “less radiosensitization”, the “EC50 IR” value (OE19; compound 578 0.7 μM + IR) was 0.5 Gy and the “EC50 IR” value (OE19; compound 578 2.1 μM + IR) was less than 0.5 Gy. The “EC50 IR” value (HCT116; compound 578 0.7 μM + IR) was 0.5 Gy, the “EC50 IR” value (HCT116; compound 578 2.1 μM + IR) was less than 0.5 Gy and the “EC50 IR” value (Miapaca2; compound 578 0.7 μM + IR) was 2.4 Gy. For the same molecule, the “EC50 IR” value (Miapaca2; compound 578 2.1 μM + IR) was 1.9 Gy, the “EC50 IR” value (DBTRG-05MG; compound 578 0.7 μM + IR) was 4.2 Gy and the “EC50 IR” value (DBTRG-05MG; compound 578 2.1 μM + IR) was 5 Gy. For the same molecule, the “EC50 IR” value (SNU449; compound 578 0.7 μM + IR) was 3.3 Gy, the “EC50 IR” value (SNU449; compound 578 2.1 μM + IR) was 1.8 Gy and the “EC50 IR” value (SW900; compound 578 0.7 μM + IR) was 4.2 Gy. For the same molecule, the “EC50 IR” value (SW900; compound 578 2.1 μM + IR) was 4.3 Gy.
